The values below come from patent US11420950B2, “Heterocyclicalkyl derivative compounds as selective histone deacetylase inhibitors and pharmaceutical compositions comprising the same” (Chong Kun Dang Pharmaceutical Corp., priority 2015, dated 2022).

One experiment has as its target T1, HDAC6 human recombinant (Homo sapiens, UniProt Q9UBN7).
T1 construct: purchased Calbiochem 382180
T1 sequence (Q9UBN7 1-1215): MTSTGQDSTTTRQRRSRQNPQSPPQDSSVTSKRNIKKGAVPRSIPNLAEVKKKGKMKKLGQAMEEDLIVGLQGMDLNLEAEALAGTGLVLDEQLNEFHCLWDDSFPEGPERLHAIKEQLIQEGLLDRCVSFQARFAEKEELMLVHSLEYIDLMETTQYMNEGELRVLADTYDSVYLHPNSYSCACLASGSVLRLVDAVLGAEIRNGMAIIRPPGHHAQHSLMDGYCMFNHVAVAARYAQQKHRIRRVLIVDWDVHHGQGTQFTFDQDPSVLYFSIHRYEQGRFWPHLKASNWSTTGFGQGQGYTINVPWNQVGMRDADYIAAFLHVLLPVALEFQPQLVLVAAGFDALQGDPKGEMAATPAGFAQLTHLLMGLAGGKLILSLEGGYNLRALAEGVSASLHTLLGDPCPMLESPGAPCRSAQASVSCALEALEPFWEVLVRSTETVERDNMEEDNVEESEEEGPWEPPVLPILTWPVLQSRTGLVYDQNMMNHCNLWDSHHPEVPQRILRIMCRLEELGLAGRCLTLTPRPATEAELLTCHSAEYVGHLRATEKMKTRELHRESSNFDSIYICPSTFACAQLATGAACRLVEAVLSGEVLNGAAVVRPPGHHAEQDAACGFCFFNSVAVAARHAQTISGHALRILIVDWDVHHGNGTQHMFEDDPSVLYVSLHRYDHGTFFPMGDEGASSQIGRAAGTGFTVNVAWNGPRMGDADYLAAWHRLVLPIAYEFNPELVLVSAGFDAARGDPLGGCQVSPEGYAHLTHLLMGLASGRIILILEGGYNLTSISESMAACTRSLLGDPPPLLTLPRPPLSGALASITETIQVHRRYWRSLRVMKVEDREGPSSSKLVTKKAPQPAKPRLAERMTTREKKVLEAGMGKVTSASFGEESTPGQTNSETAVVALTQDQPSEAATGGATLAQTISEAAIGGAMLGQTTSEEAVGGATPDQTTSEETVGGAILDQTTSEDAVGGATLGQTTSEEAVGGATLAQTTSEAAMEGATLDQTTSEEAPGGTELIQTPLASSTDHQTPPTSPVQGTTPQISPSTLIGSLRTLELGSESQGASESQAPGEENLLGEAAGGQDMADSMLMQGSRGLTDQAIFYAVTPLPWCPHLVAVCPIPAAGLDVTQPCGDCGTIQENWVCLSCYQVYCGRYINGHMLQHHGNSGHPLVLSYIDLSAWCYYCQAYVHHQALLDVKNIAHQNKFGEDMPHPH
The experiment can be described thus: HDAC6 enzyme inhibition, fluorimetric assay. It counts as biochemical. Particulars: for IC50: 0.1-1000 nM tested, 37° C. 60 minutes, fluorescence, read-out: HDAC6 (μM), ability to inhibit the activity of HDAC enzyme; for selectivity for HDAC1/6 enzymes (HDAC1/HDAC6): ratio of HDAC1 to HDAC6 values. As to the method:
(§1) Using a HDAC1 fluorimetric drug discovery assay kit (Enzolifesciences: BML-AK511) and a HDAC6 human recombinant (Calbiochem: 382180), the HDAC enzyme inhibitory abilities of test compounds were measured. It was treated with 100, 1000 and 10000 nM concentrations for HDAC1 assay, and 0.1, 1, 10, 100 and 1000 nM concentrations for HDAC6 assay. It was allowed to react at 37° C. for 60 minutes, and then was treated with a developer and allowed to react at 37° C. for 30 minutes, after which the fluorescence intensity (Ex 390 nm; Em 460 nm) was measured using FlexStatin3 (Molecular Device).

The target of a further experiment is T2, HDAC1 (Homo sapiens, UniProt Q13547).
T2 construct: purchased Enzolifesciences BML-AK511
T2 sequence (Q13547 whole entry): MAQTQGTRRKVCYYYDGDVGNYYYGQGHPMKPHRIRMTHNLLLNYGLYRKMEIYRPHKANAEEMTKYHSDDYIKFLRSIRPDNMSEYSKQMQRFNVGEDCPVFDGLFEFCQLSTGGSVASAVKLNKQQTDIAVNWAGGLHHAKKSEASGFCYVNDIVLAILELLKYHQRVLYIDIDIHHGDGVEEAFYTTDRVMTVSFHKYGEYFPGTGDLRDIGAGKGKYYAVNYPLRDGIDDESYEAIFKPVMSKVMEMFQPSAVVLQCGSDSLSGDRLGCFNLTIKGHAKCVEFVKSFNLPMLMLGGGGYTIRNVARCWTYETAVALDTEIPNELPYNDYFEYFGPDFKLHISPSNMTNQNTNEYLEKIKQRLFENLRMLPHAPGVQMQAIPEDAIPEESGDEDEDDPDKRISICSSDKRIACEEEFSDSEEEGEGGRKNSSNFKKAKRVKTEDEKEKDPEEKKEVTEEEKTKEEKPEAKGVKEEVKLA
The experiment can be described thus: HDAC1 enzyme inhibition, HDAC1 fluorimetric drug discovery assay kit. It counts as biochemical. Particulars: 100-10000 nM tested, 37° C. 60 minutes, fluorescence; read-out: HDAC1 (μM), ability to inhibit the activity of HDAC enzyme. How it is done: as §1

As for `O=C(CCCCCCNC(=O)N1CCN(C(c2cccc(F)c2)c2cccc(F)c2)CC1)NO` [Compound 1648], the IC50 on HDAC6 human recombinant worked out at 0.029 µM; at HDAC1, 0.729 µM.

In the case of `CC(c1ccccc1)N1CCC(C(=O)NCCCCCCC(=O)NO)CC1` (stereo not drawn) [Compound 1243, N-(7-(hydroxyamino)-7-oxoheptyl)-1-(1-phenylethyl)piperidine-4-carboxamide], the IC50 at HDAC6 human recombinant amounted to 0.017 µM; on HDAC1, 0.54 µM.

For the molecule `O=C(CCCCCCNC(=O)N1CCC(N(c2ccccc2)c2ccc(F)cc2)CC1)NO` [Compound 1734, 4-((4-fluorophenyl)(phenyl)amino)-N-(7-(hydroxyamino)-7-oxoheptyl)piperidine-1-carboxamide], the values for the IC50 at HDAC6 human recombinant and at HDAC1 were 0.094 µM and 0.886 µM, respectively.

Turning to `O=C(CCCCCCNC(=O)N1CCC(C(O)(c2ccccc2)c2ccccc2)CC1)NO` [Compound 1124, N-(7-(hydroxyamino)-7-oxoheptyl)-4-(hydroxydiphenylmethyl)piperidine-1-carboxamide], the IC50 at HDAC6 human recombinant was 0.024 µM; at HDAC1, 4.09 µM. Moreover, at HDAC6 human recombinant, the “selectivity for HDAC1/6 enzymes (HDAC1/HDAC6)” value was 170 fold.

Take `O=C(CCCCCCNC(=O)N1CCN(C(c2ccccn2)c2ccccn2)CC1)NO` [Compound 1222]: the IC50 was 0.085 µM on HDAC6 human recombinant and 0.71 µM at HDAC1.

As to `O=C(CCCCCCNC(=O)N1CCC(C(F)(c2ccccc2)c2ccccc2)CC1)NO` [Compound 1649, 4-(fluorodiphenylmethyl)-N-(7-(hydroxyamino)-7-oxoheptyl)piperidine-1-carboxamide], the IC50 stood at 0.033 µM at HDAC6 human recombinant and 0.463 µM on HDAC1.

Turning to `O=C(CCCCCNC(=O)N1CCN(C(c2ccccc2)c2ccccc2)CC1)NO` [Compound 1257, 4-benzhydryl-N-(6-(hydroxyamino)-6-oxohexyl)piperazine-1-carboxamide], the IC50 on HDAC6 human recombinant amounted to 0.063 µM; on HDAC1 it was 0.159 µM.

On to `O=C(CCCCCCNC(=O)C1CCN(C(c2ccccc2)c2ccccc2)CC1)NO` [Compound 1209, 1-benzhydryl-N-(7-(hydroxyamino)-7-oxoheptyl)piperidine-4-carboxamide], for which, on HDAC6 human recombinant, the IC50 came out at 0.006 µM and the “selectivity for HDAC1/6 enzymes (HDAC1/HDAC6)” value worked out at 193 fold. Besides, the IC50 at HDAC1 came out at 1.16 µM.

On to `C[C@@H]1CN(C(c2ccccc2)c2ccccc2)CCN1C(=O)NCCCCCCC(=O)NO` [Compound 1189, (R)-4-benzhydryl-N-(7-(hydroxyamino)-7-oxoheptyl)-2-methylpiperazine-1-carboxamide], for which the IC50 at HDAC6 human recombinant was determined as 0.025 µM; on HDAC1, 0.84 µM.

On to `CN(CCCCCCC(=O)NO)C(=O)N1CCN(C(c2ccccc2)c2ccccc2)CC1` [Compound 1213, 4-benzhydryl-N-(7-(hydroxyamino)-7-oxoheptyl)-N-methylpiperazine-1-carboxamide], for which the results for the IC50 on HDAC6 human recombinant and on HDAC1 were 0.044 µM and 0.704 µM, respectively.

As to `O=C(CCCCCCNC(=O)N1CC2(CCN(C(c3ccccc3)c3ccccc3)CC2)C1)NO` [Compound 1764, 7-benzhydryl-N-(7-(hydroxyamino)-7-oxoheptyl)-2,7-diazaspiro[3.5]nonane-2-carboxamide], the figures for the IC50 on HDAC6 human recombinant and at HDAC1 were 0.04 µM and 0.236 µM, respectively.

For `O=C(CCCCCNC(=O)N1CC2(CCN(C(c3ccccc3)c3ccccc3)CC2)C1)NO` [Compound 1763, 7-benzhydryl-N-(6-(hydroxyamino)-6-oxohexyl)-2,7-diazaspiro[3.5]nonane-2-carboxamide], the IC50 on HDAC6 human recombinant stood at 0.201 µM; on HDAC1 it was 0.023 µM.

Take `O=C(CCCCCCNC(=O)N1CCC(N(c2ccccc2)c2cccc(F)c2)CC1)NO` [Compound 1719, 4-((3-fluorophenyl)(phenyl)amino)-N-(7-(hydroxyamino)-7-oxoheptyl)piperidine-1-carboxamide]: the IC50 on HDAC6 human recombinant was determined as 0.116 µM; at HDAC1, 1.73 µM.

`C[C@@H]1CN(C(c2ccccc2)c2ccccc2)C[C@H](C)N1C(=O)NCCCCCCC(=O)NO` [Compound 1188, (2S,6R)-4-benzhydryl-N-(7-(hydroxyamino)-7-oxoheptyl)-2,6-dimethylpiperazine-1-carboxyamide]: the IC50 at HDAC6 human recombinant was 0.014 µM; at HDAC1, 1.68 µM.

Take `O=C(CCCCCCNC(=O)N1CCN(C(c2ccc(Cl)cc2)c2ccc(Cl)cc2)CC1)NO` [Compound 1224]: the IC50 at HDAC6 human recombinant was 0.087 µM; at HDAC1 it was 3.96 µM.

Consider `O=C(CCCCCCNC(=O)N1CCN(C(c2ccc(F)cc2)c2ccc(F)cc2)CC1)NO` [Compound 1223], for which the IC50 on HDAC6 human recombinant turned out to be 0.073 µM; on HDAC1 it was 1.16 µM.

Regarding `O=C(CCCCCNC(=O)C1CCN(C(c2ccccc2)c2ccccc2)CC1)NO` [Compound 1316, 1-benzhydryl-N-(6-(hydroxyamino)-6-oxohexyl)piperidine-4-carboxamide], the IC50 on HDAC6 human recombinant was found to be 0.456 µM; on HDAC1, 0.236 µM.

Consider `O=C(CCCCCCNC(=O)N1CCC(N(c2ccccc2)c2ccccc2)CC1)NO` [Compound 1221, 4-(diphenylamino)-N-(7-(hydroxyamino)-7-oxoheptyl)piperidine-1-carboxamide], for which the IC50 at HDAC6 human recombinant was found to be 0.079 µM; at HDAC1, 1.88 µM.

In the case of `CN(CCCCCCC(=O)NO)C(=O)C1CCN(C(c2ccccc2)c2ccccc2)CC1` [Compound 1256, 1-benzhydryl-N-(7-(hydroxyamino)-7-oxoheptyl)-N-methylpiperidine-4-carboxamide], the values for the IC50 on HDAC6 human recombinant and at HDAC1 were 0.038 µM and 0.08 µM, respectively.

With `O=C(CCCCCCCNC(=O)C1CCN(C(c2ccccc2)c2ccccc2)CC1)NO` [Compound 1317], the IC50 is 0.336 µM at HDAC6 human recombinant and 0.023 µM at HDAC1.

As for `O=C(CCCCCCNC(=O)N1CCN(C(c2ccccc2F)c2ccccc2F)CC1)NO` [Compound 1647, 4-(bis(2-fluorophenyl)methyl)-N-(7-(hydroxyamino)-7-oxoheptyl)piperazine-1-carboxamide], the IC50 at HDAC6 human recombinant was determined as 0.019 µM; on HDAC1, 0.466 µM.

On to `O=C(CCCCCCNS(=O)(=O)N1CCC(C(O)(c2ccccc2)c2ccccc2)CC1)NO` [Compound 1210, N-hydroxy-7-((4-(hydroxydiphenylmethyl)piperidine)-1-sulfonamido)heptanamide], for which the IC50 was determined as 0.07 µM at HDAC6 human recombinant and 1.19 µM on HDAC1.

Take `CC(c1ccccc1)N1CCN(C(=O)NCCCCCCC(=O)NO)CC1` (stereo not drawn) [Compound 1241, N-(7-(hydroxyamino)-7-oxoheptyl)-4-(1-phenylethyl)piperazine-1-carboxamide]: the IC50 on HDAC6 human recombinant was 0.025 µM; at HDAC1 it was 0.72 µM.

Consider `O=C(CCCCCCCNC(=O)N1CCN(C(c2ccccc2)c2ccccc2)CC1)NO` [Compound 1240, 4-benzhydryl-N-(8-(hydroxyamino)-8-oxoethyl)piperazine-1-carboxamide], for which the IC50 on HDAC6 human recombinant turned out to be 0.07 µM; at HDAC1 it was 0.41 µM.

`C[C@H]1CN(C(c2ccccc2)c2ccccc2)CCN1C(=O)NCCCCCCC(=O)NO` [Compound 1190, (S)-4-benzhydryl-N-(7-(hydroxyamino)-7-oxoheptyl)-2-methylpiperazine-1-carboxamide]: the IC50 turned out to be 0.065 µM on HDAC6 human recombinant and 1.34 µM on HDAC1.

As for “N-(7-(hydroxyamino)-7-oxoheptyl)-4-(phenyl(4-(trifluoromethyl)phenyl)amino)piperidine-1-carboxamie [Compound 1726]”, the IC50 stood at 0.228 µM on HDAC6 human recombinant and 3.7 µM at HDAC1.
